Experimental data as given in the supplement of paper PMC10307832.

How the values were obtained:
Assay in all cases: relative viability (nuclei count vs DMSO), 5 days (fraction); higher = more cells survive
[1] = compound: CCn1c(-c2nonc2N)nc2c(C#CC(C)(C)O)ncc(OC[C@H]3CCCNC3)c21 + CC1(C)CCC(c2ccc(Cl)cc2)=C(CN2CCN(c3ccc(C(=O)NS(=O)(=O)c4ccc(N[C@H](CCN5CCOCC5)CSc5ccccc5)c(S(=O)(=O)C(F)(F)F)c4)cc3)CC2)C1 [Navitoclax] (partner 0.5 µM)
Procedure, shortened: (§1)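 Relative viability equals treated-well nuclei counts divided by vehicle-well nuclei counts. Counts came from 4× images of lung cancer cell lines grown in 1536-well plates for 5 days after pin-tool dosing on the day after seeding. Dosing used one drug alone or a fixed anchor-drug dose plus five library-drug doses (not always all listed) in √10 steps, and values are medians of duplicate plates.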

[2] = compound: CCn1c(-c2nonc2N)nc2c(C#CC(C)(C)O)ncc(OC[C@H]3CCCNC3)c21 + CC(=O)Nc1cccc(-n2c(=O)n(C3CC3)c(=O)c3c(Nc4ccc(I)cc4F)n(C)c(=O)c(C)c32)c1 [Trametinib] (partner 0.02 µM)
Procedure, shortened: as §1

BAM7 + Foretinib = compound: CCOC1=CC=CC=C1N=NC2=C(NN(C2=O)C3=NC(=CS3)C4=CC=CC=C4)C [BAM7] + COc1cc2c(Oc3ccc(NC(=O)C4(C(=O)Nc5ccc(F)cc5)CC4)cc3F)ccnc2cc1OCCCN1CCOCC1 [Foretinib] (partner 0.25 µM)
Procedure, shortened: as §1

BAM7 + Vorinostat = compound: CCOC1=CC=CC=C1N=NC2=C(NN(C2=O)C3=NC(=CS3)C4=CC=CC=C4)C [BAM7] + O=C(CCCCCCC(=O)Nc1ccccc1)NO [Vorinostat] (partner 1 µM)
Procedure, shortened: as §1

| Cell Line | relative viability ([1]; first compound 0.01 µM) | relative viability ([1]; first compound 0.03162 µM) | relative viability ([1]; first compound 0.1 µM) | relative viability ([1]; first compound 0.3162 µM) | relative viability ([1]; first compound 1 µM) | relative viability ([2]; first compound 0.01 µM) | relative viability ([2]; first compound 0.03162 µM) | relative viability ([2]; first compound 0.1 µM) | relative viability ([2]; first compound 0.3162 µM) | relative viability ([2]; first compound 1 µM) | relative viability (BAM7 + Foretinib; first compound 0.5 µM) | relative viability (BAM7 + Foretinib; first compound 5 µM) | relative viability (BAM7 + Foretinib; first compound 15.81 µM) | relative viability (BAM7 + Foretinib; first compound 50 µM) | relative viability (BAM7 + Vorinostat; first compound 0.5 µM) | relative viability (BAM7 + Vorinostat; first compound 5 µM) | relative viability (BAM7 + Vorinostat; first compound 15.81 µM) | relative viability (BAM7 + Vorinostat; first compound 50 µM) |
| --- | --- | --- | --- | --- | --- | --- | --- | --- | --- | --- | --- | --- | --- | --- | --- | --- | --- | --- |
| 201T | 1.21 | 1.22 | 1.26 | 1.19 | 1.17 | 0.707 | 0.705 | 0.763 | 0.722 | 0.749 | 0.789 | 0.948 | 0.832 | 0.823 | 0.797 | 0.78 | 0.716 | 0.71 |
| A549 | 1.16 | 1.35 | 1.28 | 1.08 | 1.06 | – | – | – | – | – | 1 | 1.1 | 0.93 | 0.989 | – | – | – | – |
| A-427 | 0.941 | 0.955 | 0.913 | 0.973 | 1.02 | 0.771 | 0.81 | 0.742 | 0.691 | 0.775 | 1.11 | 1.07 | 1.05 | 1.05 | 0.829 | 0.876 | 0.834 | 0.852 |
| ABC-1 | – | – | – | – | – | – | – | – | – | – | 1.05 | 1.17 | 0.95 | 1.19 | 1.04 | 1.45 | 0.983 | 1.18 |
| BEN | 0.0596 | 0.0766 | 0.0603 | 0.0534 | 0.0741 | 0.973 | 1.25 | 0.986 | 1.03 | 1.12 | 0.694 | 0.639 | 0.634 | 0.618 | 0.573 | 0.61 | 0.523 | 0.544 |
| CAL-12T | 1.24 | 1.22 | 1.3 | 1.33 | 1.06 | 0.303 | 0.388 | 0.322 | 0.317 | 0.297 | 1.22 | 1.18 | 1.09 | 1.23 | 0.794 | 0.788 | 0.751 | 0.655 |
| COR-L23 | 0.838 | 1.05 | 1.01 | 0.968 | 1.03 | 0.625 | 0.565 | 0.486 | 0.382 | 0.373 | 0.891 | 1.01 | 0.897 | 0.981 | 0.434 | 0.379 | 0.433 | 0.52 |
| COR-L 105 | 0.613 | 0.715 | 0.74 | 0.67 | 0.654 | 0.451 | 0.434 | 0.437 | 0.46 | 0.499 | 0.957 | 1.24 | 0.937 | 0.979 | 0.889 | 0.952 | 0.895 | 0.906 |
| Calu-6 | 0.75 | 0.797 | 0.827 | 0.86 | 0.983 | – | – | – | – | – | 0.939 | 0.951 | 0.891 | 0.893 | – | – | – | – |
| ChaGo-K-1 | 1.1 | 0.88 | 0.951 | 0.899 | 1.14 | 0.843 | 0.997 | 0.879 | 0.814 | 0.78 | 0.806 | 0.928 | 0.724 | 0.983 | 0.627 | 0.787 | 0.701 | 0.742 |
| EBC-1 | 0.393 | 0.433 | 0.358 | 0.235 | 0.188 | – | – | – | – | – | 0.0974 | 0.103 | 0.0984 | 0.102 | – | – | – | – |
